Measurements: patent US4590275A, “Benzoheterazolo[3,2-a]quinolinium salts” (Commonwealth of Puerto Rico, priority 1983, dated 1986)
Read-outs that look alike come from different tables or passages of the source.

How the values were obtained:
[1] = tested on: L1210 murine leukemia; settings: cited from earlier work
[2] = tested on: P388 murine leukemia; settings: cited from earlier work
[3] = tested on: Ehrlich ascites tumor; experiment: Antitumor activity against Ehrlich ascites tumor in mice; assay type: in vivo, female Albino Swiss mice; settings: for death of mice: one dose; for T/C: Day 12
Description: (§1) It appears that structural variations such as replacement of sulfur for oxygen or selenium as well as changes in the electronic nature of the substituents are critical factors in eliciting the inhibitory activity. Since in general satisfactory cytotoxic activity "in vitro" corresponds to good antitumor activity in vivo, the antitumor activity of compound Ib was assessed in mice bearing Ehrlich ascites tumor. A range of doses from 400 mg/kg to 90 mg/kg were tested, each given in a one dose basis, 24 h after tumor implantation. […] Compound Ib was also tested against P388 leukemia in mice.
(§2) HeLa-229 and KB cells were used for in vitro tissue culture cytotoxicity experiments. Cells were grown in monolayer culture in Difco TC Minimal Medium Eagle and supplemented with 10% foetal calf serum (Flow). Subculturing was performed every 6-7 days. Ehrlich ascites tumor was maintained in serial passages at two week intervals in Albino Swiss mice by intraperitoneal implant.
(§3) The mice used through these experiments were female Albino Swiss mice.
(§4) Each group consisted of five to six weight matched animals. To begin the antitumor experiment 1×10^6 viable cells (trypan blue exclusion test) were injected ip. Test compounds were suspended in 0.9% (w/v) NaCl solution containing 0.10% (v/v) Tween 80 at the higher concentration. Lower doses were obtained by serial dilutions with 0.9% NaCl and injected ip in a volume of 0.5 ml in a single dose 24 h after implantation of the tumor. Animal body weights were recorded daily during the next 30 days and the survival was followed for the next 60 days. The P388 leukemia assay was performed according to standard protocol, Cancer Chemotherapy Rep.; Part 3, 3, 2 (1972); NCl Monograph 45, p. 150.
(§5) ^a Average of three tests except when noted.
(§6) ^b and ^c Assay performed according to procols of NCl.
(§7) ^d Treatment given ip on Day 1.
^f Toxicity = LTS number of toxic deaths/number of treated mice.
^g LTS = long term survivors (60 days)/number of treated mice.

[4] = tested on: P388 leukemia; experiment: Antitumor activity against P388 leukemia in mice; assay type: in vivo
Description: as §1, §3, §4, §5, §6
5Fluorouracil was used as control (200 mg/kg/ing).
as §7
^h Median survival time of treated mice/median survival of control
× 100. Values of T/C 120 denote activity.

[5] = tested on: Herpes simplex virus (HSV-1) infected KB cells; experiment: Protein synthesis in HSV-1 infected and mock-infected KB cells; assay type: cell-based; settings: for inhibition of translation (protein synthesis): infected vs mock-infected KB cells
Description: In addition, herpes simplex virus (HSV-1) infected KB cells and KB mock-infected cells were assayed for protein synthesis in the presence of Ib at different concentrations.
Screening of antibiotic action on protein synthesis in virus infected cells.
Herpes simplex virus (HSV-1) infected KB cells and KB mock-infected cells were assayed for protein synthesis in the presence of nitrobenzothiazolo quinolium perchlorate at different concentrations. After infection or mock-infection nitrobenzothiazolo quinolium perchlorate was added at the concentration of 100, 50, 25, 5 and 1.5 μg/ml and incubated for 48 hours.
After the incubation time, protein synthesis was measured by addition of 0.1 μCi^35 S methionine ([…]; 5.4 mCl/ml) and incubated for 1 hour. After incubation the medium was removed, the reaction stopped and the radioactivity estimated in an Intertechnique liquid scintillation spectrometer.
The value 100% of control represents 72,484 cpm (mock-infected KB cells).

[6] = tested on: KB cells; experiment: Cytotoxic activity in vitro, KB cells; assay type: cell-based; settings: for IC50: Homo sapiens, KB cells, average of at least three experiments, read-out: ED50 KB
Description: as §1, §2
(§8) The method was essentially as described in Cancer Chemotherapy Rep. Part 3, 3, 2 (1972); NCl Monograph 45, p. 150. Drugs were always suspended in sterile 0.5% carboxymethyl cellulose. As a positive control 1 μM 6-mercaptopurine was always included.

[7] = tested on: HeLa cells; experiment: Cytotoxic activity in vitro, HeLa cells; assay type: cell-based
Description: as §1, §2, §8

[8] = tested on: DNA synthesis; settings: probably by interacting with A:T base pairs; cited from earlier work
[9] = Ehrlich ascites, 90 mg/kg ip on Day 1, two test results
[10] = Ehrlich ascites, 100 mg/kg ip on Day 1, two test results
[11] = Ehrlich ascites, 150 mg/kg ip on Day 1
[12] = Ehrlich ascites, 200 mg/kg ip on Day 1
[13] = Ehrlich ascites, 250 mg/kg ip on Day 1
[14] = Ehrlich ascites, 400 mg/kg ip on Day 1

For `COc1cc2cc3c4cc(OC)c(OC)cc4cc[n+]3c(C)c2cc1OC` [Coralyne], the antitumor activity [1] is listed as “exhibits antitumor activity” and the antitumor activity [2] is listed as “exhibits antitumor activity”.
With `O=[N+]([O-])c1ccc2c(ccc3sc4ccccc4[n+]32)c1.[O-][Cl+3]([O-])([O-])[O-]` [Ib, 3-Nitrobenzothiazolo(3,2-a)quinolinium Perchlorate] the “death of mice” value ([3]; 300 mg/kg) was “died within 24 h of injection”, the “death of mice” value ([3]; 400 mg/kg) was “died within 24 h of injection” and the T/C [3, 9] was 57.3%. The “LTS, long term survivors (60 days)/number of treated mice” value (from here on “LTS, long term survivors”) [3, 9] was 5/10, the Survival [3, 9] was 3/5 and the T/C [3, 10] was 35.8%. For the same molecule, the “LTS, long term survivors” value [3, 10] was 12/12, the Survival [3, 10] was 6/6 and the “LTS, long term survivors” value [3, 11] was 15/18. For the same molecule, the Survival [3, 11] was 6/6, the T/C [3, 11] was -0.4% and the “LTS, long term survivors” value [3, 12] was 18/18. For the same molecule, the Survival [3, 12] was 6/6, the T/C [3, 12] was -6.9% and the “LTS, long term survivors” value [3, 13] was 15/18. For the same molecule, the Survival [3, 13] was 6/6, the T/C [3, 13] was -2.5% and the Survival [3, 14] was 0/6. The “Toxicity (toxic deaths/number of treated mice)” value [3, 14] was 6/6, the T/C value ([3]; Ehrlich ascites, most effective dose 200 mg/kg, one dose 24 h after tumor implantation) was -6.2 and the Survival ([4]; 200 mg/kg ip on Day 1) was 6/6. For the same molecule, the “T/C (median survival time of treated mice/median survival of control × 100)” value ([4]; 200 mg/kg ip on Day 1, values of T/C 120 denote activity) was 218, the Survival ([4]; 400 mg/kg ip on Day 1) was 0/6 and the Toxicity ([4]; 400 mg/kg ip on Day 1) was 6/6. The virus yield [5] was “drastic reduction on virus yield”, the virus yield ([5]; 5×10^-4 M, 48 hours) was “drastic reduction on virus yield” and the “inhibition of translation (protein synthesis)” value ([5]; 5×10^-4 M, 48 hours) was “inhibited preferentially translation on infected cells”. The “inhibition of translation (protein synthesis)” value [5] was “inhibited preferentially translation on infected cells”, the IC50 [6] was 0.61 µg/mL and the “cytotoxicity, ranking among compounds I” value ([6]; KB screen) was “highest cytotoxicity”. For the same molecule, the “cytotoxicity, ranking among compounds I” value ([7]; HeLa screen) was “highest cytotoxicity” and the IC50 ([7]; Homo sapiens, HeLa cells, average of at least three experiments, read-out: ED50 HeLa) was 0.9 µg/mL.
`O=[N+]([O-])c1ccc2c(ccc3[se]c4ccccc4[n+]32)c1.[O-][Cl+3]([O-])([O-])[O-]` [Il, 3-Nitrobenzoselenazolo(3,2-a)quinolinium Perchlorate] showed an IC50 [6] of 100 µg/mL.
In the case of `COc1cc2c(ccc3c4cc(OC)c(OC)cc4c[n+](C)c23)cc1O` [fagaronine], the “inhibition of DNA synthesis” value [8] is given as “inhibit DNA synthesis”, the antitumor activity [1] is given as “potent antitumor activity” and the antitumor activity [2] is given as “potent antitumor activity”.
In the case of `COc1cc2c[n+](C)c3c4cc5c(cc4ccc3c2cc1OC)OCO5` [nitidine], the “inhibition of DNA synthesis” value [8] is given as “inhibit DNA synthesis”, the antitumor activity [1] is given as “potent antitumor activity” and the antitumor activity [2] is given as “potent antitumor activity”.
